# Test results: patent publication US6017914A, “Benzo[b]thiophene compounds, intermediates, formulations, and methods” (Eli Lilly and Company, priority 1997, dated 2000)
# What was measured:
# [1] = test system: Serum Cholesterol; test: Serum cholesterol in ovariectomized rats (Cholesterol Analysis); assay type: in vivo, female Sprague Dawley rats; settings: daily for 4 days
# [2] = test system: uterus; test: Post-menopausal ovariectomized rat model: wet uterine weight; assay type: in vivo, female Sprague Dawley rats; settings: daily for 4 days
Structure (SMILES),Serum Cholesterol (% Dec.) versus ovariectomized controls ([1]; 0.1 mg/kg PO) [%],Uterine Wt. (% Inc.) versus the ovariectomized controls ([2]; 0.1 mg/kg PO) [%],Uterine Wt. (% Inc.) versus the ovariectomized controls ([2]; 1 mg/kg PO) [%],Uterine Wt. (% Inc.) versus the ovariectomized controls ([2]; 10 mg/kg PO) [%],Serum Cholesterol (% Dec.) versus ovariectomized controls ([1]; 1 mg/kg PO) [%],Serum Cholesterol (% Dec.) versus ovariectomized controls ([1]; 10 mg/kg PO) [%]
"CC(=O)c1ccc2c(C(=O)c3ccc(OCCN4CCCCC4)cc3)c(-c3ccc(O)cc3)sc2c1 [Example 5, [2-(4-Hydroxyphenyl)-6-acetylbenzo[b]thien-3-yl][4-[2-(1-piperidinyl)ethoxy]phenyl]methanone]",-6.3,18.8,51.8,69.4,–,–
"COC(=O)c1ccc2c(C(=O)c3ccc(OCCN4CCCCC4)cc3)c(-c3ccc(O)cc3)sc2c1.Cl [Example 1, [2-(4-Hydroxyphenyl)-6-methoxycarbonylbenzo[b]thien-3-yl][4-[2-(1-piperidinyl)ethoxy]phenyl]methanone Hydrochloride]",-8.6,46.9,19.1,45.2,–,–
"C#Cc1ccc2c(C(=O)c3ccc(OCCN4CCCCC4)cc3)c(-c3ccc(O)cc3)sc2c1 [Example 6, [2-(4-Hydroxyphenyl)-6-ethynylbenzo[b]thien-3-yl][4-[2-(1-piperidinyl)ethoxy]phenyl]methanone]",–,14.3,27.8,22.5,–,–
"Cl.O=C(O)c1ccc2c(C(=O)c3ccc(OCCN4CCCCC4)cc3)c(-c3ccc(O)cc3)sc2c1 [Example 4, [2-(4-Hydroxyphenyl)-6-carboxybenzo[b]thien-3-yl][4-[2-(1-piperidinyl)ethoxy]phenyl]methanone Hydrochloride]",0.6,18.8,27.2,29.6,–,–
"CCCCOC(=O)c1ccc2c(C(=O)c3ccc(OCCN4CCCCC4)cc3)c(-c3ccc(O)cc3)sc2c1 [Example 2, [2-(4-Hydroxyphenyl)-6-n-butoxycarbonylbenzo[b]thien-3-yl][4-[2-(1-piperidinyl)ethoxy]phenyl]methanone]",-1.2,19.4,16.8,52.5,–,–
CC(C)COC(=O)c1ccc2c(C(=O)c3ccc(OCCN4CCCCC4)cc3)c(-c3ccc(O)cc3)sc2c1 [Example 3],-2.4,11.8,21.7,47.1,8.7,58.0
